Reference: ChEMBL document CHEMBL5678816, “A Next-Generation TRK Kinase Inhibitor Overcomes Acquired Resistance to Prior TRK Kinase Inhibition in Patients with TRK Fusion-Positive Solid Tumors” (Cancer Discov, 2017)
Active and inactive are the calls of the source. The rule behind the calls is not given here.

How the values were obtained:
[1] = Inhibition of human extracellular domain deleted TRKA V573M mutant expressed in mouse NIH3T3 cells assessed as reduction in TRKA phosphorylation incubated for 1 hrs by ELISA; format: cell-based; settings: NIH3T3, 1 h
[2] = Inhibition of N-terminal 3FLAG-tagged ETV6-TRKC G696A mutant (unknown origin) expressed in NIH3T3 cells assessed as ERK1/2 phosphorylation incubated for 1 hrs by flow cytometric analysis; format: cell-based, Homo sapiens
D283 Med = assay: Inhibition of cell proliferation in human D283 Med cells upto 10 umol/L incubated for 72 hrs by DAPI staining based analysis; format: functional; settings: dose <= 10.0 µmol/L
MCF7 = assay: Inhibition of cell proliferation in human MCF7 cells upto 10 umol/L incubated for 72 hrs by DAPI staining based analysis; format: functional; settings: dose <= 10.0 µmol/L
DBTRG-05MG = assay: Inhibition of cell proliferation in human DBTRG-05MG cells upto 10 umol/L incubated for 72 hrs by DAPI staining based analysis; format: functional; settings: dose <= 10.0 µmol/L
SW579 = assay: Inhibition of cell proliferation in human SW579 cells upto 10 umol/L incubated for 72 hrs by DAPI staining based analysis; format: functional; settings: dose <= 10.0 µmol/L
BXPC-3 = assay: Inhibition of cell proliferation in human BXPC-3 cells upto 10 umol/L incubated for 72 hrs by DAPI staining based analysis; format: functional; settings: dose <= 10.0 µmol/L
JeKo-1 = assay: Inhibition of cell proliferation in human JeKo-1 cells upto 10 umol/L incubated for 72 hrs by DAPI staining based analysis; format: functional; settings: dose <= 10.0 µmol/L
[3] = test system: KATO III stomach cancer cell line; assay: Inhibition of cell proliferation in human KATO III stomach cancer cell line upto 10 umol/L incubated for 72 hrs by DAPI staining based analysis; format: functional; settings: dose <= 10.0 µmol/L
[4] = molecular target: Tyrosine-protein kinase TXK (Homo sapiens) (UniProt P42681); assay: Inhibition of Txk (unknown origin) at 1 uM in presence of ATP relative to control
[5] = AUC in adult patient with recurrent LMNA-NTRK1 rearranged colorectal cancer at 50 mg administered twice a day as powder-in-capsule or liquid formulation for 1 day by LC-MS/MS analysis; format: ADME; settings: human, in vivo, po
[6] = AUC in adult patient with recurrent LMNA-NTRK1 rearranged colorectal cancer at 100 mg administered twice a day as powder-in-capsule or liquid formulation for 22 day by LC-MS/MS analysis; format: ADME; settings: human, in vivo, po
[7] = molecular target: Serine/threonine-protein kinase Sgk1 (Homo sapiens) (UniProt O00141); assay: Inhibition of SGK1 (unknown origin) at 1 uM in presence of ATP relative to control; values are per cent of control
Sequence of Serine/threonine-protein kinase Sgk1 (Homo sapiens) (O00141 whole entry): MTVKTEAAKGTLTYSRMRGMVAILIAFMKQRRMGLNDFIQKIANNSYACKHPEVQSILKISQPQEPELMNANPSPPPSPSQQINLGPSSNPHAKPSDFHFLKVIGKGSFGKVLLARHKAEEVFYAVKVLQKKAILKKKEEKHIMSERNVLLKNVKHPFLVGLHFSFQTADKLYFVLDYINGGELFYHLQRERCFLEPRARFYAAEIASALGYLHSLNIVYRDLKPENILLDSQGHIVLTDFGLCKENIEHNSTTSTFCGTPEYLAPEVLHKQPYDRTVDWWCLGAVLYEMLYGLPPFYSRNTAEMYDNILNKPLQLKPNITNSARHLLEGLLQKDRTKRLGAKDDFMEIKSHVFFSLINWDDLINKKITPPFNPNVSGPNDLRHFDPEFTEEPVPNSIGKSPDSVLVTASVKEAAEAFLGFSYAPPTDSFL

[8] = molecular target: Serine/threonine-protein kinase VRK2 (Homo sapiens) (UniProt Q86Y07); assay: Inhibition of VRK2 (unknown origin) at 1 uM in presence of ATP relative to control; values are per cent of control
Sequence of Serine/threonine-protein kinase VRK2 (Homo sapiens) (Q86Y07 whole entry): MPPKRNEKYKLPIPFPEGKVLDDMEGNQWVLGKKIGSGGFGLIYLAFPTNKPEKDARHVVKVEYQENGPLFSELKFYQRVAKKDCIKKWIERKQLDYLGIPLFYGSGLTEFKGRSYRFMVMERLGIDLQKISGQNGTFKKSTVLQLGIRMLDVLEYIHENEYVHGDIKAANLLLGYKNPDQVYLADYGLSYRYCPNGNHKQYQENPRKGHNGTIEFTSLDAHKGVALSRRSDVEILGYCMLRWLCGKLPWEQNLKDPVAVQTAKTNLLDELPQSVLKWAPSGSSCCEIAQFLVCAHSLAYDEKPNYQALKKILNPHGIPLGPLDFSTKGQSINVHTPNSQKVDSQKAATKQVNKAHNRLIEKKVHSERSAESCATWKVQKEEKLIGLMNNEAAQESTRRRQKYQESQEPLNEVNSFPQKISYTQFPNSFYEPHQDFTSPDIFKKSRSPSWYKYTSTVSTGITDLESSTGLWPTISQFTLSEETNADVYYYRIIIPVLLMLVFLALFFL

[9] = molecular target: Serine/threonine-protein kinase Nek6 (Homo sapiens) (UniProt Q9HC98); assay: Inhibition of NEK6 (unknown origin) at 1 uM in presence of ATP relative to control; values are per cent of control
[10] = molecular target: Serine/threonine-protein kinase WNK3 (Homo sapiens) (UniProt Q9BYP7); assay: Inhibition of WNK3 (unknown origin) at 1 uM in presence of ATP relative to control; values are per cent of control
Sequence of Serine/threonine-protein kinase WNK3 (Homo sapiens) (Q9BYP7 whole entry): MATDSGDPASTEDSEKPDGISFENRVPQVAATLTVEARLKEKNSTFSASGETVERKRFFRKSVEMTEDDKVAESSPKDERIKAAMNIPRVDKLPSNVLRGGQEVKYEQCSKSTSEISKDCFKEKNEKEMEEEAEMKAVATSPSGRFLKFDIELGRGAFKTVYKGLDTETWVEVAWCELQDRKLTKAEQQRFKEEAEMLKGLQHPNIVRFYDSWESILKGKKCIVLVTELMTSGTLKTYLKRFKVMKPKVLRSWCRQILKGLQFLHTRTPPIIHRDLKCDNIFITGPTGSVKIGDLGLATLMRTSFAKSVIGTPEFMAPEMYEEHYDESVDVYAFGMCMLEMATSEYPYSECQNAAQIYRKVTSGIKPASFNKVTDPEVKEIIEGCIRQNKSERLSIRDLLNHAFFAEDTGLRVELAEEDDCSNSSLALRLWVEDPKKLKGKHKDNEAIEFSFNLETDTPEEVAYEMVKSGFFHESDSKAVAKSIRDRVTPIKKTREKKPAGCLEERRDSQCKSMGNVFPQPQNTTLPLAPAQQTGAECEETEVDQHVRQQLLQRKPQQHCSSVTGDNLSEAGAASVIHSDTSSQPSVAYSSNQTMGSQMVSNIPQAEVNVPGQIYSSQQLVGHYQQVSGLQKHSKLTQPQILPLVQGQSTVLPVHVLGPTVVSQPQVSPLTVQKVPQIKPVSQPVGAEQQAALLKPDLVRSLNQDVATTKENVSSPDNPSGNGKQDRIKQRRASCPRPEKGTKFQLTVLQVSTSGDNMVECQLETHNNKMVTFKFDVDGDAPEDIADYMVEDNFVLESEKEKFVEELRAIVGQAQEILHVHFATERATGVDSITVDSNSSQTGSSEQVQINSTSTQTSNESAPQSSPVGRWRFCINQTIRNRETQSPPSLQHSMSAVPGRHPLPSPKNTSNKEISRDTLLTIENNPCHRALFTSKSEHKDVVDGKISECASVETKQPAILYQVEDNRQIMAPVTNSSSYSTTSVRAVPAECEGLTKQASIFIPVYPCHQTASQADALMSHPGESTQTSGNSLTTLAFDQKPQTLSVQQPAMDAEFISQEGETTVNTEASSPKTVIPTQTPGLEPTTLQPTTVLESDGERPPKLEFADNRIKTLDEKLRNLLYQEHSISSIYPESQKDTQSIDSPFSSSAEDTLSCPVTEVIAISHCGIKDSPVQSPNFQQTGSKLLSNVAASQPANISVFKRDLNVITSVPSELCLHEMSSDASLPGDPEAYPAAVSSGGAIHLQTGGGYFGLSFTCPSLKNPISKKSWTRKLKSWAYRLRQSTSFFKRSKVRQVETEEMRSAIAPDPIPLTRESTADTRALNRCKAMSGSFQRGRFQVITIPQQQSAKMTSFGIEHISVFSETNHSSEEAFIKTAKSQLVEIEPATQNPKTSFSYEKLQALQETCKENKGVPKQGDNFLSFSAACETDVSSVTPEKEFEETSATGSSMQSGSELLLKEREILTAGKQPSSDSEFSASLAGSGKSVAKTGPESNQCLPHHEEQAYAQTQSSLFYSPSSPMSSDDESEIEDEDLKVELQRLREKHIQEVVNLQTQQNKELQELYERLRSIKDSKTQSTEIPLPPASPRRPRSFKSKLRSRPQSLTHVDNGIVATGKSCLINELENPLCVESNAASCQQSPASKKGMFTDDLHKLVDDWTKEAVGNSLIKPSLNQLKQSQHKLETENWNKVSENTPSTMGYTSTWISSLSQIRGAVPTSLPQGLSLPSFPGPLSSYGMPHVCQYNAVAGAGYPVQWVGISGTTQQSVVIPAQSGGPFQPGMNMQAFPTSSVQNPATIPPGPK

[11] = molecular target: Aurora kinase A (Homo sapiens) (UniProt O14965); assay: Inhibition of AURKA (unknown origin) at 1 uM in presence of ATP relative to control; values are per cent of control
Sequence of Aurora kinase A (Homo sapiens) (O14965 whole entry): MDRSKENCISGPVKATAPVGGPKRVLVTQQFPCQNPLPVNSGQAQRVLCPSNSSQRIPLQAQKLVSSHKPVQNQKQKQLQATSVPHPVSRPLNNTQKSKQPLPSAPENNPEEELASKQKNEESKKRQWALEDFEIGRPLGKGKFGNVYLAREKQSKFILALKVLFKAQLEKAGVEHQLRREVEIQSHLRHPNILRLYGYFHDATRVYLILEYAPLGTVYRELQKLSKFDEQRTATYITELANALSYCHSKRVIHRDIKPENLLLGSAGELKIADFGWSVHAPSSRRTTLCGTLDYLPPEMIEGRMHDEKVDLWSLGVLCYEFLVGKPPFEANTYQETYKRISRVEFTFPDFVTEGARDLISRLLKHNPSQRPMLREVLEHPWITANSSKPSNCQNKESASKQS

[12] = molecular target: Fibroblast growth factor receptor 1 (Homo sapiens) (UniProt P11362); assay: Inhibition of FGFR1 (unknown origin) at 1 uM in presence of ATP relative to control; values are per cent of control
[13] = molecular target: Fibroblast growth factor receptor 3 (Homo sapiens) (UniProt P22607); assay: Inhibition of FGFR3 (unknown origin) at 1 uM in presence of ATP relative to control; values are per cent of control
[14] = molecular target: Eukaryotic elongation factor 2 kinase (Homo sapiens) (UniProt O00418); assay: Inhibition of eEF-2K (unknown origin) at 1 uM in presence of ATP relative to control; values are per cent of control
Sequence of Eukaryotic elongation factor 2 kinase (Homo sapiens) (O00418 whole entry): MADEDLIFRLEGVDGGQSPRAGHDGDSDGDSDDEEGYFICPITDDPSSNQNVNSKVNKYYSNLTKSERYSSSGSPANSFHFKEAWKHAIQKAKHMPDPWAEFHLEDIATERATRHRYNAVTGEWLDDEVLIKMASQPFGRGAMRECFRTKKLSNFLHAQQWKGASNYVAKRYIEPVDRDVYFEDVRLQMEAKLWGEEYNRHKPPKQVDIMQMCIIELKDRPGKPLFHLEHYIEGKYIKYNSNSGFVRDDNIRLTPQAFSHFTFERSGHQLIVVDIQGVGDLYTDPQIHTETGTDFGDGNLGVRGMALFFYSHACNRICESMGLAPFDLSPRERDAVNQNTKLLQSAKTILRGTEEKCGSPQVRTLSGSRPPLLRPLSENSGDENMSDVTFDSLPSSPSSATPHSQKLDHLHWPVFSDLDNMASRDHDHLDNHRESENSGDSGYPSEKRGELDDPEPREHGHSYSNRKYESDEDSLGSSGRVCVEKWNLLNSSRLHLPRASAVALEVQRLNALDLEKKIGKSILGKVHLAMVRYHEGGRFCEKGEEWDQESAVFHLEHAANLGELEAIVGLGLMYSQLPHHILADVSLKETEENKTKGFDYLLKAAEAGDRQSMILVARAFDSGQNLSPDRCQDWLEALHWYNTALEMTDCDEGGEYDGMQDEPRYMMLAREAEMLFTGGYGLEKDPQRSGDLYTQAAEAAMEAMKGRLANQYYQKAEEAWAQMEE

[15] = molecular target: Tyrosine-protein kinase ZAP-70 (Homo sapiens) (UniProt P43403); assay: Inhibition of ZAP-70 (unknown origin) at 1 uM in presence of ATP relative to control; values are per cent of control
[16] = molecular target: Mitogen-activated protein kinase 14 (Homo sapiens) (UniProt Q16539); assay: Inhibition of p38alpha (unknown origin) at 1 uM in presence of ATP relative to control; values are per cent of control
Sequence of Mitogen-activated protein kinase 14 (Homo sapiens) (Q16539 whole entry): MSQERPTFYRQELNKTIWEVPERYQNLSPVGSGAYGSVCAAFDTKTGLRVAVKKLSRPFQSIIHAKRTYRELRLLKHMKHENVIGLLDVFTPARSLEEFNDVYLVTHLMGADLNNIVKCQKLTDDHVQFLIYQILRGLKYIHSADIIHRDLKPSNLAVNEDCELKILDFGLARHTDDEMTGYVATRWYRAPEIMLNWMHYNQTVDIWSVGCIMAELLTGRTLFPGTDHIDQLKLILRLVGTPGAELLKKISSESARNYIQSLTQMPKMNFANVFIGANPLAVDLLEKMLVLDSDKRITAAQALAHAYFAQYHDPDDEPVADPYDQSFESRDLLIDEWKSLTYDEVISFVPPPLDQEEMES

[17] = molecular target: cGMP-dependent protein kinase 1 (Homo sapiens) (UniProt Q13976); assay: Inhibition of PRKG1beta (unknown origin) at 1 uM in presence of ATP relative to control; values are per cent of control
[18] = molecular target: MAP kinase-activated protein kinase 5 (Homo sapiens) (UniProt Q8IW41); assay: Inhibition of MAPKAP-K5 (unknown origin) at 1 uM in presence of ATP relative to control; values are per cent of control
[19] = molecular target: Casein kinase II subunit alpha' (Homo sapiens) (UniProt P19784); assay: Inhibition of CK2alpha2 (unknown origin) at 1 uM in presence of ATP relative to control; values are per cent of control
Sequence of Casein kinase II subunit alpha' (Homo sapiens) (P19784 whole entry, looked up): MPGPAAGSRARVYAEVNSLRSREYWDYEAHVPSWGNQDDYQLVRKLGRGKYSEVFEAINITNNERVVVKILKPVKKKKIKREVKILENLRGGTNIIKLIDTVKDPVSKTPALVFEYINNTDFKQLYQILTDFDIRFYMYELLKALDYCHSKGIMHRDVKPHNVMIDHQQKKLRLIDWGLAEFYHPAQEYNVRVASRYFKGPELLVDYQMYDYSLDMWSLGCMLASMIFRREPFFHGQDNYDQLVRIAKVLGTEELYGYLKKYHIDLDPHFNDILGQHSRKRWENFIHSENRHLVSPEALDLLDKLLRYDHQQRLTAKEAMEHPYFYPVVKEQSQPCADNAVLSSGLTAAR

[20] = molecular target: Mitogen-activated protein kinase 9 (Homo sapiens) (UniProt P45984); assay: Inhibition of JNK2alpha2 (unknown origin) at 1 uM in presence of ATP relative to control; values are per cent of control
Sequence of Mitogen-activated protein kinase 9 (Homo sapiens) (P45984 whole entry, looked up): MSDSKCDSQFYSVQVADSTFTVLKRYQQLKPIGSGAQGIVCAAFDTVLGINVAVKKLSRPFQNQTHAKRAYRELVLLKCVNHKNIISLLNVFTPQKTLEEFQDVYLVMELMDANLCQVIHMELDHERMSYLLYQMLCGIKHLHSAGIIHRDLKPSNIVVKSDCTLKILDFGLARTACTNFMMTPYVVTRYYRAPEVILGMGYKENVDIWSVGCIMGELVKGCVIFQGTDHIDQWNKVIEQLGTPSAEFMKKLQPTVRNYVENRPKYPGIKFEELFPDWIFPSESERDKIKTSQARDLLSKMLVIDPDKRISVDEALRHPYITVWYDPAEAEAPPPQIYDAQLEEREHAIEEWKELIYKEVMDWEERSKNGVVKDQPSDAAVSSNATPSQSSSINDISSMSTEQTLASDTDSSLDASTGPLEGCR

[21] = molecular target: Cyclin-dependent kinase 2/cyclin E1 (Homo sapiens) (UniProt P24864+P24941); assay: Inhibition of CDK2/cyclinE (unknown origin) at 1 uM in presence of ATP relative to control; values are per cent of control
[22] = molecular target: Insulin receptor (Homo sapiens) (UniProt P06213); assay: Inhibition of Activated IR (unknown origin) at 1 uM in presence of ATP relative to control; values are per cent of control
[23] = molecular target: CDK7/Cyclin H/MNAT1 (Homo sapiens) (UniProt P51946+P50613+P51948); assay: Inhibition of CDK7/cyclinH/MAT1 (unknown origin) at 1 uM in presence of ATP relative to control; values are per cent of control

IC50 [1]: 29 nM | IC50 [2]: 17.5 nM | inhibition [4]: 14% | AUC at 24 h [5]: 1190 ng·h/mL | AUC at 528 h [6]: 3870 ng·h/mL | residual activity [7]: 124% | residual activity [8]: 98% | residual activity [9]: 116% | residual activity [10]: 110% | residual activity [11]: 97% | residual activity [12]: 91.5% | residual activity [13]: 119% | residual activity [14]: 118% | residual activity [15]: 118% | residual activity [16]: 109% | residual activity [17]: 114% | residual activity [18]: 97% | residual activity [19]: 99% | residual activity [20]: 100% | residual activity [21]: 106% | residual activity [22]: 97% | residual activity [23]: 108%
SMILES: C[C@@H]1CCc2ncc(F)cc2[C@H]2CCCN2c2ccn3ncc(c3n2)C(=O)N1 [SELITRECTINIB]
inhibition (D283 Med): inactive | inhibition (MCF7): inactive | inhibition (DBTRG-05MG): inactive | inhibition (SW579): inactive | inhibition (BXPC-3): inactive | inhibition (JeKo-1): inactive | inhibition [3]: inactive
